{
  "source": "patent US8404715B2",
  "about": "“Methods and compositions using racemic, (R)-, and (S)-fexofenadine in combination with leukotriene inhibitors” (Sunovion Pharmaceuticals Inc., priority 1998, dated 2013)",
  "origin": "cited, not measured here",
  "key": {"LTD4 [1]": {"test_system": "LTD4", "details": "in vivo"}, "LTD4 [2]": {"test_system": "LTD4", "details": "in vivo", "remark": "listed apart in the source"}, "[3]": {"details": "in some patients"}, "[4]": {"test_system": "contractile activity of three leukotrienes", "details": "laboratory animals"}, "[5]": {"test_system": "contractile activity of three leukotrienes", "details": "humans"}, "LTB4 formation": {"test_system": "LTB4 formation", "details": "ex vivo, several species"}, "[6]": {"test_system": "leukotriene-dependent smooth muscle contractions", "details": "in vitro, guinea pig airways"}, "[7]": {"details": "in some patients", "remark": "listed apart in the source"}, "[8]": {"test_system": "leukotriene (LTH4, LTC4, LTD4, and LTE4) formation", "details": "in vitro"}, "[9]": {"details": "373 patients"}, "[10]": {"test_system": "leukotriene-dependent smooth muscle contractions", "details": "in vitro, human airways"}, "LTD4 (leukotriene D4)": {"test_system": "LTD4 (leukotriene D4)", "details": "guinea pigs"}, "[11]": {"details": "in vivo"}, "[12]": {"test_system": "nasal response to allergen challenge"}},
  "note": "Read-outs that look alike come from different tables or passages of the source.",
  "data": [
    {"smiles": "COc1cc(C(=O)NS(=O)(=O)c2ccccc2C)ccc1Cc1cn(C)c2ccc(NC(=O)OC3CCCC3)cc12", "note": "[zafirlukast, 4-(5-cyclopentyloxy-carbonylamino-1-methyl-indol-8-ylmethyl)-3-methoxy-N-o-tolylsulfonylbenzamide]", "values": [
      {"measurement": "inhaled LTD4-induced influx of eosinophils into animal lungs", "setting": "LTD4 [1]", "value": "inhibited"},
      {"measurement": "intradermal LTD4-induced increases in cutaneous vascular permeability", "setting": "LTD4 [2]", "value": "prevented"},
      {"measurement": "adverse effects reported", "setting": "[3]", "value": "headache, infection, nausea, diarrhea, pain, asthenia, abdominal pain, dizziness, myalgia, fever, vomiting, SGPT elevation, and dyspepsia"},
      {"measurement": "contractile activity of three leukotrienes in conducting airway smooth muscle", "setting": "[4]", "value": "antagonized"},
      {"measurement": "contractile activity of three leukotrienes in conducting airway smooth muscle", "setting": "[5]", "value": "antagonized"}
    ]},
    {"smiles": "CC(c1cc2ccccc2s1)N(O)C(N)=O", "note": "(racemic) [zileuton, (±)-1-(1-Benso[b]thien-2-ylethyl)-1-hydroxyurea]", "values": [
      {"measurement": "LTB4 formation", "setting": "LTB4 formation", "value": "inhibitor"},
      {"measurement": "leukotriene-dependent smooth muscle contractions", "setting": "[6]", "value": "inhibits"},
      {"measurement": "adverse effects reported", "setting": "[7]", "value": "headache, pain, asthenia, dyspepsia, nausea, and myalgia"},
      {"measurement": "leukotriene (LTH4, LTC4, LTD4, and LTE4) formation", "setting": "[8]", "value": "inhibit"},
      {"measurement": "efficacy", "setting": "[9]; 400 mg", "value": "failed to do so"},
      {"measurement": "efficacy", "setting": "[9]; 600 mg four times daily", "value": "required to provide efficacy"},
      {"measurement": "leukotriene-dependent smooth muscle contractions", "setting": "[10]", "value": "inhibits"}
    ]},
    {"smiles": "CC(C)(C)c1ccc(C(O)CCCN2CCC(C(O)(c3ccccc3)c3ccccc3)CC2)cc1", "note": "(stereo not shown) [Terfenadine]", "values": [
      {"measurement": "increase in airway resistance caused by LTD4", "setting": "LTD4 (leukotriene D4)", "value": "suppressed"},
      {"measurement": "absorption", "setting": "[11]", "value": "well absorbed"},
      {"measurement": "metabolism", "setting": "[11]", "value": "extensively metabolized"},
      {"measurement": "early nasal response to allergen challenge", "setting": "[12]; in vivo", "value": "partially inhibits"},
      {"measurement": "influx of eosinophils into nasal secretions", "setting": "[12]; in vivo", "value": "without affecting"},
      {"measurement": "subsequent reactivity to a challenge with methacholine", "setting": "[12]; in vivo", "value": "partially inhibits"},
      {"measurement": "levels of tryptase, prostaglandin D2 and leukotriene C4", "setting": "[12]; relative to the placebo, differences did not achieve statistical significance", "value": "tended to decrease"}
    ]}
  ]
}
